Test results: ChEMBL document CHEMBL1201862, “PubChem BioAssay data set” (2004)
Activity calls are given as the source filed them.

Assays:
[1] = inhibitors of firefly luciferase expression or activity, dose response, H4 neuroglioma cells, luminescence (AID 1990); assay type: functional, cell-based
[2] = Luminescence Cell-Based Dose Response HTS to Identify Inhibitors of 5'UTR Stem-Loop Driven Prion Protein mRNA Translation in H4 Neuroglioblastoma Cells. [Related pubchem assays: 1827 (Project Summary), 1813 (Primary HTS)]; assay type: functional
[3] = inhibitors of SNCA 5'UTR-driven reporter translation, confirmation, H4 neuroglioma cells, luminescence (AID 1988); assay type: functional, cell-based
[4] = inhibitors of intracellular T. cruzi replication, confirmation, NIH3T3 host cells, beta-gal luminescence (AID 2044); assay type: functional, cell-based;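 further: intracellular parasites grown in NIH/3T3 mouse fibroblasts as host cells; luminescent beta-galactosidase reporter signal from transgenic T. cruzi replicating inside host cells; inhibitors lower the luminescence signal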
[5] = cytotoxicity toward NIH3T3 fibroblasts, dose response, counter-screen, cell-based, ATP luminescence, mouse fibroblasts (AID 2010); assay type: functional;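 further: cells exposed to compound for about 90 hours before reading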
[6] = Shn3 3'UTR reporter inhibitors, dose response, cell-based, Clone20 osteoblasts, firefly luciferase, cherry-picked (AID 624132); assay type: functional;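 further: firefly luciferase luminescence from reporter carrying the Shn3 3'UTR in osteoblasts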
[7] = HepG2 cell cytotoxicity, dose response, cytotoxicity control for Shn3 inhibitor project, CellTiter-Glo, cherry-picked (AID 624134); assay type: functional, cell-based
[8] = control 3'UTR Renilla luciferase suppression, dose response, counter-screen for Shn3 inhibitor project, cell-based, Clone20-Shn3RL, cherry-picked (AID 624133); assay type: functional
[9] = HEK293T cytotoxicity, dose response, cytotoxicity control for miR-122 modulator project, cell-based, inhibitor set, cherry-pick, set 2 (AID 720697); assay type: functional
[10] = HEK293T cytotoxicity, dose response, cytotoxicity control for miR-122 modulator project, cell-based, activator set, cherry-pick (AID 720690); assay type: functional;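 further: HEK293T human cells scored for general mammalian cytotoxicity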
[11] = target: T1, COUP transcription factor 2 (Homo sapiens, UniProt P24468); experiment: Luminescence-based cell-based high throughput dose response assay to identify inhibitors of COUP-TFII (NR2F2).; assay type: functional;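 further: HEK293 cells transiently cotransfected with COUP-TFII expression vector and reporter; luciferase reporter luminescence driven by COUP-TFII from the pX2-168 reporter plasmid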
T1 sequence (P24468 whole entry): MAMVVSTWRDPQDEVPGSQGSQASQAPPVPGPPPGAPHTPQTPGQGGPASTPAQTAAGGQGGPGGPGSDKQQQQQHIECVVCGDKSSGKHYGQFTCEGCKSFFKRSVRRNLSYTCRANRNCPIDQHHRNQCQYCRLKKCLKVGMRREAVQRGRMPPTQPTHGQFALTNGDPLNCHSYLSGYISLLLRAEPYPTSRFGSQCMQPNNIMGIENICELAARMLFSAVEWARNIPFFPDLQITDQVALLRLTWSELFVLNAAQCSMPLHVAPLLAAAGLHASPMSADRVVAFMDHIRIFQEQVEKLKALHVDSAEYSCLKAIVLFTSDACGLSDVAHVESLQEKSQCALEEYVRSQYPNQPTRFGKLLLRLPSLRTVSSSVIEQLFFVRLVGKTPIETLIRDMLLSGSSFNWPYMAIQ

[12] = target: FAD-linked sulfhydryl oxidase ALR (Homo sapiens, UniProt P55789); experiment: inhibitors of human ALR sulfhydryl oxidase, dose response, biochemical, H2O2 detection, luminescence, cherry-pick (AID 493248)
FAD-linked sulfhydryl oxidase ALR, sequence (P55789 whole entry, the tested form may be a part): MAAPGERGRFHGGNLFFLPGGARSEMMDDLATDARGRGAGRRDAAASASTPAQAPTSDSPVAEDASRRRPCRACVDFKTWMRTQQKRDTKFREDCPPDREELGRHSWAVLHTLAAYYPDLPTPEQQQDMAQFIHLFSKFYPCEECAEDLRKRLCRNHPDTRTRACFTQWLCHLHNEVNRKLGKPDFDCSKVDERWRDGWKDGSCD

[13] = target: T2, Carboxy-terminal domain RNA polymerase II polypeptide A small phosphatase 1 (Homo sapiens, UniProt Q9GZU7); experiment: inhibitors of CTDSP1, concentration-response testing, biochemical assay, absorbance-based, actives from ultra-high-throughput screening (AID 540297); assay type: functional
T2 sequence (Q9GZU7 whole entry): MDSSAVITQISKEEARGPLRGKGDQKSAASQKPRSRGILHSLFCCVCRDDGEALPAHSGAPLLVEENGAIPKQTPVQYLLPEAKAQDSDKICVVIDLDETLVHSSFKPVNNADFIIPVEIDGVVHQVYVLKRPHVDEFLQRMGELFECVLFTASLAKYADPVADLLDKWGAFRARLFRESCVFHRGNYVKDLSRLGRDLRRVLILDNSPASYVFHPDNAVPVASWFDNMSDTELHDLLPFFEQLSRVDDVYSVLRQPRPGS

Caspase-6 = target: T3, Caspase-6 (Homo sapiens, UniProt P55212); experiment: human caspase-6 inhibitors, dose response, biochemical, VEID-R110 fluorescence, cherry-pick (AID 720632)
T3 sequence (P55212 whole entry): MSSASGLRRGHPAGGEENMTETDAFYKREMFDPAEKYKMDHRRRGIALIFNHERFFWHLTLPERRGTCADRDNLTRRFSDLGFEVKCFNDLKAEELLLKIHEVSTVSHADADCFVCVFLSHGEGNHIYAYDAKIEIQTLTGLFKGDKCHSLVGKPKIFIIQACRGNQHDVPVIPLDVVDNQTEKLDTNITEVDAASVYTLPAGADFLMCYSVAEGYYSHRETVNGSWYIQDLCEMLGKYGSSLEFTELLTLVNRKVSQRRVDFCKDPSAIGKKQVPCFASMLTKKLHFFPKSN

[14] = target: T4, Histone-lysine N-methyltransferase NSD2 (Homo sapiens, UniProt O96028); assay type: biochemical
T4 sequence (O96028 whole entry): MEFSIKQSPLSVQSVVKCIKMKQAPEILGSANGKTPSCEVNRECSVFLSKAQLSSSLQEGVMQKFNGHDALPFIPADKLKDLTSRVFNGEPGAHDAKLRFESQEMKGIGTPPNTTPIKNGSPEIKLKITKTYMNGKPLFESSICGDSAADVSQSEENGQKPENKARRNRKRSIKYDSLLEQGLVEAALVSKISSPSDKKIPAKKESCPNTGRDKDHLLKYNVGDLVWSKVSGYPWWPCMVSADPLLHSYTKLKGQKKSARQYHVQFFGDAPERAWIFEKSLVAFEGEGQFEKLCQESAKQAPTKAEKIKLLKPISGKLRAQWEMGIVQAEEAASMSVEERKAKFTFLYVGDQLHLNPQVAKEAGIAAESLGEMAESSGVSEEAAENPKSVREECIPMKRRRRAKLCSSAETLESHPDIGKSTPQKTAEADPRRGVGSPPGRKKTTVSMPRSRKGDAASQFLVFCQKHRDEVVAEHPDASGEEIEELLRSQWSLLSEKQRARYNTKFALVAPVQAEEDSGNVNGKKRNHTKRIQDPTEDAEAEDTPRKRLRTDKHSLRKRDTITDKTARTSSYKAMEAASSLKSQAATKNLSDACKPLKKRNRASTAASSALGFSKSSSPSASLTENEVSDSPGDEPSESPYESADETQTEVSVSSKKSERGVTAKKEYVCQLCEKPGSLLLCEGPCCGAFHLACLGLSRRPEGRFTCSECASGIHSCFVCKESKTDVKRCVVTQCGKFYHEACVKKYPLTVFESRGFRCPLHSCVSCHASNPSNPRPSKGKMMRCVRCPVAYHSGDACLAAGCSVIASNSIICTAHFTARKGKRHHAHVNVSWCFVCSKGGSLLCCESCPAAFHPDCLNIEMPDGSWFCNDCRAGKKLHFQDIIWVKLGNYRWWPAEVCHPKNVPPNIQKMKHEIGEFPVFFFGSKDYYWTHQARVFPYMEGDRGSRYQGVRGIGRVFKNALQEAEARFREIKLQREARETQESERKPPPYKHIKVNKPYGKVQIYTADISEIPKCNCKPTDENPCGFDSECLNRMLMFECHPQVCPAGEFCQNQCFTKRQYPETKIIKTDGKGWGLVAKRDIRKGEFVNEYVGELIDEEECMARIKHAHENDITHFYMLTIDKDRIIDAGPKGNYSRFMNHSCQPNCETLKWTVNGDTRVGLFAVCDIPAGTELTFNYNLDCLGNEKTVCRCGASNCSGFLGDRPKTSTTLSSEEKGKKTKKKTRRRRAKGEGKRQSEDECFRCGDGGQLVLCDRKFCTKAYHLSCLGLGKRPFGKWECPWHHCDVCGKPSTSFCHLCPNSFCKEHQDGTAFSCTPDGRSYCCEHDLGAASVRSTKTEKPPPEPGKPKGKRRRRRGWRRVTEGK

fMet-Leu-Phe receptor = target: T5, fMet-Leu-Phe receptor (Homo sapiens, UniProt P21462); experiment: FPR ligands, dose response (AID 519); assay type: functional
T5 sequence (P21462 whole entry): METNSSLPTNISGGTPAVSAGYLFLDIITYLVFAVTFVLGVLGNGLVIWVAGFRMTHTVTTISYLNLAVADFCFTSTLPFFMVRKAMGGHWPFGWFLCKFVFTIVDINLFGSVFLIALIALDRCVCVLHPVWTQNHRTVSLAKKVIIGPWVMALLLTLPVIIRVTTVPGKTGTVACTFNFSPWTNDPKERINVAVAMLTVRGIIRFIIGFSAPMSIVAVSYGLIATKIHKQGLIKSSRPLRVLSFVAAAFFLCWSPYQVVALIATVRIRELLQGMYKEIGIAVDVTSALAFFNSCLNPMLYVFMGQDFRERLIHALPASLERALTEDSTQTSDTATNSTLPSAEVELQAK

[15] = microbe, parasite or virus in culture; assay type: functional; conditions: Mycobacterium tuberculosis
[16] = cytotoxicity in HEK-293T cells, dose response, cytotoxicity control for TCR NF-kB inhibitor project, luminescence, T-cell screen hits (AID 489026); assay type: functional, cell-based;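 further: cells exposed to compound about 14 hours before the viability readout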
Fatty acid synthase [17] = target: T6, Fatty acid synthase (Homo sapiens, UniProt P49327); experiment: FAS thioesterase domain inhibitors, dose response, biochemical, endpoint fluorescence intensity, uHTS hits (AID 624327); assay type: functional;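 further: fluorescence from hydrolysis of an O-methyl fluorescein acyl ester substrate by the enzyme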
T6 sequence (P49327 whole entry, the tested form may be a part): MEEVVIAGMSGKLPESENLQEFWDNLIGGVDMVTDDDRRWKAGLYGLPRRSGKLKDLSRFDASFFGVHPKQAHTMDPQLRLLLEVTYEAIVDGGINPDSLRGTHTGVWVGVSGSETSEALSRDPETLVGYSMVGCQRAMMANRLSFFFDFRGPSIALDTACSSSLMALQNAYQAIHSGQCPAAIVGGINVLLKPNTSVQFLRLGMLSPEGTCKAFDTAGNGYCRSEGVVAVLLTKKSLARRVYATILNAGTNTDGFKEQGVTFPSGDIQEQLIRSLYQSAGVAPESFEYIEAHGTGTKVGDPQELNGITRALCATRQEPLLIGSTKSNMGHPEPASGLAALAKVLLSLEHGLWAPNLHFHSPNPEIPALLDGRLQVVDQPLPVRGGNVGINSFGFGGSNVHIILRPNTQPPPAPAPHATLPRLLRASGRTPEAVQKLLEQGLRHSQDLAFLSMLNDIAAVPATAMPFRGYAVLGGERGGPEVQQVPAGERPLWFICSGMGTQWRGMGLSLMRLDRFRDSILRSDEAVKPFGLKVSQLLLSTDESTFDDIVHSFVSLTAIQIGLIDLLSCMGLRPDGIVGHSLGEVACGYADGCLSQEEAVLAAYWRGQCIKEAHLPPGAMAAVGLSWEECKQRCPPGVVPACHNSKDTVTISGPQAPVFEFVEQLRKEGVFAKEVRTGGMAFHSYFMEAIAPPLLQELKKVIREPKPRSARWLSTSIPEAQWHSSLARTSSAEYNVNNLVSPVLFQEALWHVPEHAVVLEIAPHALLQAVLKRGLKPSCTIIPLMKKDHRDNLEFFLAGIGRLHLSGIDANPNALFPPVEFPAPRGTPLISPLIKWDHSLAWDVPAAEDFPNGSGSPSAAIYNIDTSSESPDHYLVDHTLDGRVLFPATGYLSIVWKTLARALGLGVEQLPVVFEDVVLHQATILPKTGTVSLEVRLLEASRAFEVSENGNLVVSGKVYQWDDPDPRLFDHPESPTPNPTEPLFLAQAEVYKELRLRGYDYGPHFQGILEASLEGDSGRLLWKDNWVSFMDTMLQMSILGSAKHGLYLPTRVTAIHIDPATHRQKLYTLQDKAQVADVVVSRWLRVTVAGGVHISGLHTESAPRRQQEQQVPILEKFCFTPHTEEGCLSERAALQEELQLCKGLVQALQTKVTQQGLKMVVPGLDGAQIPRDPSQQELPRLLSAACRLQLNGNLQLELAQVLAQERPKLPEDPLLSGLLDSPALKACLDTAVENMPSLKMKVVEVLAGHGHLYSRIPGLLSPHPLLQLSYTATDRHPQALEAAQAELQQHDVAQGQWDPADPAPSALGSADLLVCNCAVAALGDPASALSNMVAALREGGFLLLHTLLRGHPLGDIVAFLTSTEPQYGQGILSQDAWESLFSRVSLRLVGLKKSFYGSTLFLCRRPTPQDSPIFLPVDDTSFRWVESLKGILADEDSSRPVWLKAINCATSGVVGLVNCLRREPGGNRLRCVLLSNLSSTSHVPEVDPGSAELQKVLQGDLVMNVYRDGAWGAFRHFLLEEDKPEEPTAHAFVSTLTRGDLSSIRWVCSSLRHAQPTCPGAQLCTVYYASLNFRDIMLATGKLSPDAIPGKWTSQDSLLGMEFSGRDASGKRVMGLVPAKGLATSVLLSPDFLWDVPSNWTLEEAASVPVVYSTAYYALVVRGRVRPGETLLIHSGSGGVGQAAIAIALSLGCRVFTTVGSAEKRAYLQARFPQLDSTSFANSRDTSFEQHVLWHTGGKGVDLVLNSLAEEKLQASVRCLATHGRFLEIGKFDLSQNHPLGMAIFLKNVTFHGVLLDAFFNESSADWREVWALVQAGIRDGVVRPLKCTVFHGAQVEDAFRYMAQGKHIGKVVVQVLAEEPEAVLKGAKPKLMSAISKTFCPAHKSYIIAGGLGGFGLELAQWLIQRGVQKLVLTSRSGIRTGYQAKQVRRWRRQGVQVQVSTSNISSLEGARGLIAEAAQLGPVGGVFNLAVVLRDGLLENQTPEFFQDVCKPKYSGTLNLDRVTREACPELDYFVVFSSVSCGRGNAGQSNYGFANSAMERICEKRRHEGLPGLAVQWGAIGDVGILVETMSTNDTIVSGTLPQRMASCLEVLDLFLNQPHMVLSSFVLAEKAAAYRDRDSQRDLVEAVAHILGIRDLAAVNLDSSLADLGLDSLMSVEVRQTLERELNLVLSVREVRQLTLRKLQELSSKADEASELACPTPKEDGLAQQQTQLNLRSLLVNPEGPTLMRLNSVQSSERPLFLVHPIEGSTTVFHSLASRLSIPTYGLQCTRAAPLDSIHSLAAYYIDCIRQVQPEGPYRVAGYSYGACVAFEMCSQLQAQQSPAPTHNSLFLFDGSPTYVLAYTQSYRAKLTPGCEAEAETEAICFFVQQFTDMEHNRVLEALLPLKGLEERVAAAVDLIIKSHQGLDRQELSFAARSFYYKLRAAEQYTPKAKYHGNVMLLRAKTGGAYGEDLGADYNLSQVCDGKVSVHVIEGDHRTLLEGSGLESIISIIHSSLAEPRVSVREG

Fatty acid synthase [18] = target: T6, Fatty acid synthase; experiment: FAS thioesterase domain inhibitors, dose response, biochemical, kinetic fluorescence intensity (AID 624326); assay type: functional;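 further: rate of fluorescence rise from hydrolysis of a fluorogenic O-methyl fluorescein ester substrate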
[19] = CEM21 lymphoblast cell cytotoxicity, dose response, cytotoxicity control for viral fusion inhibitor project, CellTiter-Glo luminescence, cherry-picked (AID 652042); assay type: functional, cell-based;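 further: potency for signal decrease meaning cytotoxicity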
[20] = inhibitors of clade B AD8 Env fusion, dose response, cell-based, cherry-pick (AID 652062); assay type: functional;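 further: luciferase signal from cell-cell fusion driven by HIV-1 clade B AD8 Env; potency is for inhibitors of fusion seen as a drop in luminescence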
BJ [21] = experiment: cytotoxicity toward BJ-TERT fibroblasts, dose response, cell-based, RAS-independent, luminescence (AID 1933); assay type: functional; conditions: Homo sapiens
BJ [22] = experiment: cells; assay type: functional, cell-based; conditions: Homo sapiens
BJ [23] = experiment: cytotoxicity toward BJ-TERT-LT-ST fibroblasts, dose response, cell-based, RAS-independent, luminescence (AID 1935); assay type: functional; conditions: Homo sapiens;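 further: BJ fibroblasts immortalized with TERT plus LT and ST oncogenes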
[24] = cytotoxicity toward DRD oncogenic fibroblasts, dose response, cell-based, non-viral oncogenic, luminescence (AID 1934); assay type: functional; conditions: Homo sapiens
BJ [25] = experiment: cytotoxicity toward Ras-transformed BJeLR fibroblasts, dose response, cell-based, alamar blue fluorescence, cherrypicked samples (AID 2631); assay type: functional; conditions: Homo sapiens;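 further: confirmatory dose-response assay in RAS-dependent BJ fibroblasts engineered with TERT, LT and ST, with cytotoxicity read by fluorescence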
[26] = miR-122 activators in hepatoma reporter cells, dose response, cell-based, Huh7 psiCHECK-miR122, Renilla luciferase, cherry-picked (AID 651956); assay type: functional;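 further: huh7 hepatoma cells stably carrying a psiCHECK-2 miR-122 sensor plasmid; renilla luciferase signal reporting endogenous miR-122 activity after 48 h compound exposure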
Paired box protein Pax-8 = Paired box protein Pax-8 (Homo sapiens, UniProt Q06710); experiment: inhibitors of PAX8-driven TPO luciferase reporter, dose response, RMG-I cells, cherry-pick (AID 687027); assay type: functional, cell-based;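 further: luciferase reporter driven by Pax8 target thyroperoxidase promoter measured by SteadyGlo luminescence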
Paired box protein Pax-8, sequence (Q06710 whole entry): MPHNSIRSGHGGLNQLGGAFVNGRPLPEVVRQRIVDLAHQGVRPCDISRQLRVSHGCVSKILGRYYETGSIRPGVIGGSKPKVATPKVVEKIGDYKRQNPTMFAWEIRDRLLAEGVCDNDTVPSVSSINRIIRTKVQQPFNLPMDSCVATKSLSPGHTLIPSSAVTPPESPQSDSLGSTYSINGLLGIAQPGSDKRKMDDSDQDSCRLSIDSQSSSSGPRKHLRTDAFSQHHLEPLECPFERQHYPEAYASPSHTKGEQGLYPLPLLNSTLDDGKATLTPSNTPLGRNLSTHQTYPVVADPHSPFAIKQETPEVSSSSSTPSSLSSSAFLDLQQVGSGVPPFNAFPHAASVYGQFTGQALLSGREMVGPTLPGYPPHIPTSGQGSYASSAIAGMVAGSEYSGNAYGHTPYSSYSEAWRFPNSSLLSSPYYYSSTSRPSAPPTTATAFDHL

[27] = non-specific cell cytotoxicity, dose response, cytotoxicity control for PAX8 inhibitor project, plate reader, dry powder samples (AID 743021); assay type: functional, cell-based

For `N#Cc1ccc(NC(=O)Nc2ccc(Oc3ccc(NC(=O)Nc4ccc(C#N)cc4)cc3)cc2)cc1`, the EC50 [1] was > 120 µM (not active), the EC50 [2] was 10.1 µM (active) and the EC50 [3] was 8.67 µM (active). The EC50 [4] was 1.01 µM (active), the EC50 [5] was > 60 µM (not active) and the AC50 [6] was 2.68 µM (active). For the same compound, the AC50 [7] was 6.46 µM (active), the AC50 [8] was 13.1 µM (active) and the AC50 [9] was 5.02 µM (active). For the same compound, the AC50 [10] was 6.66 µM (active).
For `CCOC(=O)N1CCC(NC(=O)C2CCCN(Cc3nc(-c4ccc(CC)cc4)oc3C)C2)CC1` (stereo unspecified), the IC50 [11] was 9.26 µM (active).
For `C=CCc1cc(/C=C/c2nc(O)c([N+](=O)[O-])c(O)n2)cc(OC)c1O`, the AC50 [12] was 0.469 µM (active), the IC50 [13] was 19.3 µM (active) and the AC50 (Caspase-6) was 9.31 µM (active). For the same compound, the AC50 [14] was > 20 µM (inactive).
In the case of `CCOc1ccccc1NC(=O)CSc1nccn1-c1ccccc1`, the Ki (fMet-Leu-Phe receptor) was > 66.7 µM (inactive).
For `CC1Cc2cc(-c3csc(NC(=O)Cc4cccs4)n3)ccc2N1S(C)(=O)=O` (stereo unspecified), the CC50 [15] was > 40 µM (active), the IC50 [16] was 38 µM (inactive) and the IC50 (Fatty acid synthase [17]) was 14.1 µM (active). For the same compound, the IC50 (Fatty acid synthase [18]) was 7.01 µM (active), the AC50 [19] was 54.5 µM (active) and the AC50 [20] was 5.65 µM (active). The IC50 [11] was 3.11 µM (active).
In the case of `O=C1Nc2ccccc2/C1=C1/SC(=S)N(CC2CCCO2)C1=O` (stereo unspecified), the Ki (fMet-Leu-Phe receptor) was > 66.7 µM (inactive).
With `COc1ccccc1C1C(C(=O)c2ccccc2)=C(O)C(=O)N1CC(C)O` (stereo unspecified) the Ki (fMet-Leu-Phe receptor) was 24.6 µM (inactive).
For `CCOc1cc(C(=O)O)ccc1OCCOc1ccccc1`, the AC50 (Caspase-6) was 34 µM (active).
In the case of `Cc1onc(C(=O)N2CCN(C(c3ccccc3)c3ccccc3)CC2)c1[N+](=O)[O-]`, the EC50 (BJ [21]) was 0.659 µM (inconclusive), the EC50 (BJ [22]) was 5.65 µM (active) and the EC50 (BJ [23]) was > 150 µM (not active). The EC50 [24] was 4.77 µM (active), the EC50 (BJ [25]) was 6.63 µM (active) and the AC50 [26] was 66.8 µM (active). The AC50 (Paired box protein Pax-8) was 5.28 µM (active), the AC50 [9] was 10.8 µM (active) and the AC50 [10] was 3.14 µM (active). The AC50 [27] was 3.3 µM (active).
